Reference: paper PMC5290327, “SC83288 is a clinical development candidate for the treatment of severe malaria” (Nature Communications, 2017)

What was measured:
Assay in all cases: KINOMEscan
Format in all cases: binding
Conditions in all cases: read-out: Remaining enzyme activity
[1] = biological target: T1, ABL1(Y253F) (Homo sapiens, UniProt P00519, Y253F)
T1 construct: purchased Ambit (DiscoverX) KINOMEscan; Cerep
Procedure, shortened: (§1)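 qPCR of a DNA tag reports how much kinase stays bound to ligand-coated beads in the presence of 10 μM SC81458, diluted from a DMSO stock. Kinase sources were T7 phage lysates from E. coli or HEK-293-expressed protein tagged with DNA.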

[2] = biological target: T2, ACVR1b (Homo sapiens, UniProt P36896)
T2 construct: purchased Ambit (DiscoverX) KINOMEscan; Cerep
Procedure, shortened: as §1

[3] = biological target: T3, CAMK2d (Homo sapiens, UniProt Q13557)
T3 construct: purchased Ambit (DiscoverX) KINOMEscan; Cerep
Procedure, shortened: as §1

[4] = biological target: T4, CDC2L1 (Homo sapiens, UniProt P21127)
T4 construct: purchased Ambit (DiscoverX) KINOMEscan; Cerep
Procedure, shortened: as §1

[5] = biological target: T5, CDK2 (Homo sapiens, UniProt P24941)
T5 construct: purchased Ambit (DiscoverX) KINOMEscan; Cerep
Procedure, shortened: as §1

[6] = biological target: T6, CDK7 (Homo sapiens, UniProt P50613)
T6 construct: purchased Ambit (DiscoverX) KINOMEscan; Cerep
Procedure, shortened: as §1

[7] = biological target: T7, DCAMKL3 (Homo sapiens, UniProt Q9C098)
T7 construct: purchased Ambit (DiscoverX) KINOMEscan; Cerep
Procedure, shortened: as §1

[8] = biological target: T8, EGFR(E46-A750del) (Homo sapiens, UniProt P00533, DEL746-750)
T8 construct: purchased Ambit (DiscoverX) KINOMEscan; Cerep
Procedure, shortened: as §1

[9] = biological target: T9, EGFR(S752-I759del) (Homo sapiens, UniProt P00533, DEL752-759)
T9 construct: purchased Ambit (DiscoverX) KINOMEscan; Cerep
Procedure, shortened: as §1

[10] = biological target: T10, EPHA3 (Homo sapiens, UniProt P29320)
T10 construct: purchased Ambit (DiscoverX) KINOMEscan; Cerep
Procedure, shortened: as §1

[11] = biological target: T11, EPHA6 (Homo sapiens, UniProt Q9UF33)
T11 construct: purchased Ambit (DiscoverX) KINOMEscan; Cerep
Procedure, shortened: as §1

[12] = biological target: T12, ERBB3 (Homo sapiens, UniProt P21860)
T12 construct: purchased Ambit (DiscoverX) KINOMEscan; Cerep
Procedure, shortened: as §1

[13] = biological target: T13, ERK3 (Homo sapiens, UniProt Q16659)
T13 construct: purchased Ambit (DiscoverX) KINOMEscan; Cerep
Procedure, shortened: as §1

[14] = biological target: T14, FLT4 (Homo sapiens, UniProt P35916)
T14 construct: purchased Ambit (DiscoverX) KINOMEscan; Cerep
Procedure, shortened: as §1

[15] = biological target: T15, IRAK1 (Homo sapiens, UniProt P51617)
T15 construct: purchased Ambit (DiscoverX) KINOMEscan; Cerep
Procedure, shortened: as §1

[16] = biological target: T16, LKB1 (Homo sapiens, UniProt Q15831)
T16 construct: purchased Ambit (DiscoverX) KINOMEscan; Cerep
Procedure, shortened: as §1

[17] = biological target: T17, LYN (Homo sapiens, UniProt P07948)
T17 construct: purchased Ambit (DiscoverX) KINOMEscan; Cerep
Procedure, shortened: as §1

[18] = biological target: T18, MLCK (Homo sapiens, UniProt Q32MK0)
T18 construct: purchased Ambit (DiscoverX) KINOMEscan; Cerep
Procedure, shortened: as §1

[19] = biological target: T19, MLK1 (Homo sapiens, UniProt P80192)
T19 construct: purchased Ambit (DiscoverX) KINOMEscan; Cerep
Procedure, shortened: as §1

[20] = biological target: T20, MRCKB (Homo sapiens, UniProt Q9Y5S2)
T20 construct: purchased Ambit (DiscoverX) KINOMEscan; Cerep
Procedure, shortened: as §1

[21] = biological target: T21, PIK3CA (Homo sapiens, UniProt P42336)
T21 construct: purchased Ambit (DiscoverX) KINOMEscan; Cerep
Procedure, shortened: as §1

[22] = biological target: T22, PIK3Cb (Homo sapiens, UniProt P42338)
T22 construct: purchased Ambit (DiscoverX) KINOMEscan; Cerep
Procedure, shortened: as §1

[23] = biological target: T23, PIK4Cb (Homo sapiens, UniProt Q9UBF8)
T23 construct: purchased Ambit (DiscoverX) KINOMEscan; Cerep
Procedure, shortened: as §1

[24] = biological target: T24, PKN1 (Homo sapiens, UniProt Q16512)
T24 construct: purchased Ambit (DiscoverX) KINOMEscan; Cerep
Procedure, shortened: as §1

[25] = biological target: T25, PLK3 (Homo sapiens, UniProt Q9H4B4)
T25 construct: purchased Ambit (DiscoverX) KINOMEscan; Cerep
Procedure, shortened: as §1

[26] = biological target: T26, RET (Homo sapiens, UniProt P07949)
T26 construct: purchased Ambit (DiscoverX) KINOMEscan; Cerep
Procedure, shortened: as §1

[27] = biological target: T27, RIPK2 (Homo sapiens, UniProt O43353)
T27 construct: purchased Ambit (DiscoverX) KINOMEscan; Cerep
Procedure, shortened: as §1

[28] = biological target: T28, RIPK4 (Homo sapiens, UniProt P57078)
T28 construct: purchased Ambit (DiscoverX) KINOMEscan; Cerep
Procedure, shortened: as §1

[29] = biological target: T29, RPS6KA2(Kin.Dom.2-C-term) (Homo sapiens, UniProt Q15349)
T29 construct: RPS6KA2(Kin.Dom.2-C-term); purchased Ambit (DiscoverX) KINOMEscan; Cerep
Procedure, shortened: as §1

[30] = biological target: T30, STK16 (Homo sapiens, UniProt O75716)
T30 construct: purchased Ambit (DiscoverX) KINOMEscan; Cerep
Procedure, shortened: as §1

[31] = biological target: T31, TXK (Homo sapiens, UniProt P42681)
T31 construct: purchased Ambit (DiscoverX) KINOMEscan; Cerep
Procedure, shortened: as §1

[32] = biological target: T32, p38-alpha (Homo sapiens, UniProt Q16539)
T32 construct: purchased Ambit (DiscoverX) KINOMEscan; Cerep
Procedure, shortened: as §1

[33] = biological target: T33, p38-beta (Homo sapiens, UniProt Q15759)
T33 construct: purchased Ambit (DiscoverX) KINOMEscan; Cerep
Procedure, shortened: as §1

T30 sequence (O75716 whole entry): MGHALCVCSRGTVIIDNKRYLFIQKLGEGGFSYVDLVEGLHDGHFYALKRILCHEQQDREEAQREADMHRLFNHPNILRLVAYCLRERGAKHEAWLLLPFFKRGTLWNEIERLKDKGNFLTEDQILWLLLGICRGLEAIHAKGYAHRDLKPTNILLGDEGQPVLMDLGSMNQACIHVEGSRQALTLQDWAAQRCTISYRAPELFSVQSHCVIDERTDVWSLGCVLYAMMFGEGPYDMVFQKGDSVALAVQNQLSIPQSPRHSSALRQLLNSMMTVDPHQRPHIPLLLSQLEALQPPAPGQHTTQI
T32 sequence (Q16539 whole entry): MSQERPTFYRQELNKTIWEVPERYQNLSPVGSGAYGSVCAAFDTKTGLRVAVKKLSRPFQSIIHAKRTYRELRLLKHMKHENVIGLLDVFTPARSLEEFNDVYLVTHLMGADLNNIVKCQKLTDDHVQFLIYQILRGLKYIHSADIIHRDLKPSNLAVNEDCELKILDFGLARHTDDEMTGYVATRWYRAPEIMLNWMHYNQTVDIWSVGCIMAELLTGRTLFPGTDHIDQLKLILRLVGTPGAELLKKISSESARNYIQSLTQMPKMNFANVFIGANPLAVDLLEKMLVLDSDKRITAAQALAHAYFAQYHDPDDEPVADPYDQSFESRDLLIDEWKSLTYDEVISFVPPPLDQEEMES
T29 sequence (Q15349 415-672 limits assumed): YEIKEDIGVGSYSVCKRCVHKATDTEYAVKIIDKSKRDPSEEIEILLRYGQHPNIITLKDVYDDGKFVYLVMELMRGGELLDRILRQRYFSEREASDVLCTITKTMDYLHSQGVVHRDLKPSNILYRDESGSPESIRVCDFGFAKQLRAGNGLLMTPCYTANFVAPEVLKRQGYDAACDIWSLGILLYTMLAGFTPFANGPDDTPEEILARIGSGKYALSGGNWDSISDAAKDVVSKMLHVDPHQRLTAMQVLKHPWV
T8 sequence (P00533 with tags, fused parts or gaps DEL746-750 limits assumed): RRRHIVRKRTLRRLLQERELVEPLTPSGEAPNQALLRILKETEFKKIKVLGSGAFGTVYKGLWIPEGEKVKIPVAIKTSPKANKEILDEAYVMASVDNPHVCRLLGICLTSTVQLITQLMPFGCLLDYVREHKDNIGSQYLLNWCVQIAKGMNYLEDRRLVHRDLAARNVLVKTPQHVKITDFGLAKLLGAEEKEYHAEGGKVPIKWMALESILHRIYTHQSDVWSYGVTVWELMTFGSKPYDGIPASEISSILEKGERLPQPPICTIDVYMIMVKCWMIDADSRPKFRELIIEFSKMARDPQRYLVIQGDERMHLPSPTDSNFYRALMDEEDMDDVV
T7 sequence (Q9C098 whole entry): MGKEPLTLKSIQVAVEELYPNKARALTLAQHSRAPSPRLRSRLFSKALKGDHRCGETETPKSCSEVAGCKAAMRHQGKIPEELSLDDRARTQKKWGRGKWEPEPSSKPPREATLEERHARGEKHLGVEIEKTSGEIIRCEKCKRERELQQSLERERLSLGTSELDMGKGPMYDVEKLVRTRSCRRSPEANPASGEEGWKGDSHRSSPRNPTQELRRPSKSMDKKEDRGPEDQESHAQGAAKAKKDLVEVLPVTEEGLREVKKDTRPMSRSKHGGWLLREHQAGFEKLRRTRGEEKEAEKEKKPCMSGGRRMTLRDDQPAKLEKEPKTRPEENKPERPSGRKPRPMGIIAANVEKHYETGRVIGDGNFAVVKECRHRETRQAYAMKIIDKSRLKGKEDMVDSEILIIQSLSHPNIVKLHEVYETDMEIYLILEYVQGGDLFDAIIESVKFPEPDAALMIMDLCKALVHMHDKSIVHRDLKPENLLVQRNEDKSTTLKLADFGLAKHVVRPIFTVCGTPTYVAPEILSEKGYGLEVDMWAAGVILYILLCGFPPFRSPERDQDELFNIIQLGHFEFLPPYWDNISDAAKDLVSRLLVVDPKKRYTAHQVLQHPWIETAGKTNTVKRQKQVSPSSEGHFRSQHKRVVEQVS
T24 sequence (Q16512 whole entry): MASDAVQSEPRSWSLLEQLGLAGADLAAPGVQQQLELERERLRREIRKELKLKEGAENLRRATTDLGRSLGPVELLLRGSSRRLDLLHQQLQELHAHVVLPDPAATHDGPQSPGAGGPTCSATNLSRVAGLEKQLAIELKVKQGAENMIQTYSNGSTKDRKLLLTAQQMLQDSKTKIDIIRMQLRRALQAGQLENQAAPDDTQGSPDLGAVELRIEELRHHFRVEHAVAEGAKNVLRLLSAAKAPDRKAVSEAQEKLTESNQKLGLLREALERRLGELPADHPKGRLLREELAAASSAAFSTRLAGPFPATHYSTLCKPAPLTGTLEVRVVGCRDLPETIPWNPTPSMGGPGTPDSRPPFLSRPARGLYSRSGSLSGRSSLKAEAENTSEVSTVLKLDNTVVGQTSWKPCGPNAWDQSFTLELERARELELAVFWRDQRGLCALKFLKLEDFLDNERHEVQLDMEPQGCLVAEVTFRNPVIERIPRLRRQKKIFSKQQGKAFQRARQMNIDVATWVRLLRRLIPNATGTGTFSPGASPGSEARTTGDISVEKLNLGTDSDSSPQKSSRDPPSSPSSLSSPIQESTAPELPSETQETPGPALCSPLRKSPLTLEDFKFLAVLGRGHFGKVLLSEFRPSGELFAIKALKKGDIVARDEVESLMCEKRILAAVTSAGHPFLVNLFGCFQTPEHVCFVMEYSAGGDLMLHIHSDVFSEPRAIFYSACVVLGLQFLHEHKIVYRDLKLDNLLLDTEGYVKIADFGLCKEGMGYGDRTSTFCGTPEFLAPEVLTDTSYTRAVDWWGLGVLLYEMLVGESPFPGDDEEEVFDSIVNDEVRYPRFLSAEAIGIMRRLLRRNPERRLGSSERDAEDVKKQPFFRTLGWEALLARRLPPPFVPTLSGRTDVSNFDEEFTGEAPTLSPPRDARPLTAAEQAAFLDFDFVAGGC
T9 sequence (P00533 with tags, fused parts or gaps DEL752-759 limits assumed): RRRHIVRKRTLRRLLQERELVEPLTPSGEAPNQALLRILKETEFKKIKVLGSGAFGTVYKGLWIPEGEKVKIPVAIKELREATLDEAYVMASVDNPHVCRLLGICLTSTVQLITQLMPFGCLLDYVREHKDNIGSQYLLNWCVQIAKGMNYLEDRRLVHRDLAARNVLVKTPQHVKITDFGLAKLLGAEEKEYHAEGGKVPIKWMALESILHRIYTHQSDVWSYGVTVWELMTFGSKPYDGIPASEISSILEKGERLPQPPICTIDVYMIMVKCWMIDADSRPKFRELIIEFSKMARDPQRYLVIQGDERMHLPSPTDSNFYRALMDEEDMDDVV
T11 sequence (Q9UF33 23-1036): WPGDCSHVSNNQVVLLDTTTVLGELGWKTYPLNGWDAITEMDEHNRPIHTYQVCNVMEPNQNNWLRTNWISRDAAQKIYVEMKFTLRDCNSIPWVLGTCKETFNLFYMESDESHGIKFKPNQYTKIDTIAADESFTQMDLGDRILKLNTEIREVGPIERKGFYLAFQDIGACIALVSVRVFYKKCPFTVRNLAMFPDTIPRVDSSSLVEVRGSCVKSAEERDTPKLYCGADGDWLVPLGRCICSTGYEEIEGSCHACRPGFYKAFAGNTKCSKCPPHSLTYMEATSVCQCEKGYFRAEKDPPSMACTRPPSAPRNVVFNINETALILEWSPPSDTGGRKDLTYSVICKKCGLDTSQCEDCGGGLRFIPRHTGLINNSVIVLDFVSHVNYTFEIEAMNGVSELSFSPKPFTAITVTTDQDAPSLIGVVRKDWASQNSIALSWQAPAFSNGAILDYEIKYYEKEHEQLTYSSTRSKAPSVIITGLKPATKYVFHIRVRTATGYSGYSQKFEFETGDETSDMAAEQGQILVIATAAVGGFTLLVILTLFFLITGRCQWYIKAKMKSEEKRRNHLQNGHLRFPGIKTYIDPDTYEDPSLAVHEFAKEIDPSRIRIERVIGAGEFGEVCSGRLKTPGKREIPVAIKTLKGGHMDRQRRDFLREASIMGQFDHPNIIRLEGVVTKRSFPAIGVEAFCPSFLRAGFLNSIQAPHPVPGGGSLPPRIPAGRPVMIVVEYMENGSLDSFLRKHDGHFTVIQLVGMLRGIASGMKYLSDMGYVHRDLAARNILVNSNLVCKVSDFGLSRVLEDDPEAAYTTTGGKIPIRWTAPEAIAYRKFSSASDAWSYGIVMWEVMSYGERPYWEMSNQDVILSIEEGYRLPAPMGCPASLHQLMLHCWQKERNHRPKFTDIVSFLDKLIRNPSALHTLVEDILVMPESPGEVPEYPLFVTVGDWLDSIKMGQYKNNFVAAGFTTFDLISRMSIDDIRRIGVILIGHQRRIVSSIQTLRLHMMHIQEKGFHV
T18 sequence (Q32MK0 whole entry): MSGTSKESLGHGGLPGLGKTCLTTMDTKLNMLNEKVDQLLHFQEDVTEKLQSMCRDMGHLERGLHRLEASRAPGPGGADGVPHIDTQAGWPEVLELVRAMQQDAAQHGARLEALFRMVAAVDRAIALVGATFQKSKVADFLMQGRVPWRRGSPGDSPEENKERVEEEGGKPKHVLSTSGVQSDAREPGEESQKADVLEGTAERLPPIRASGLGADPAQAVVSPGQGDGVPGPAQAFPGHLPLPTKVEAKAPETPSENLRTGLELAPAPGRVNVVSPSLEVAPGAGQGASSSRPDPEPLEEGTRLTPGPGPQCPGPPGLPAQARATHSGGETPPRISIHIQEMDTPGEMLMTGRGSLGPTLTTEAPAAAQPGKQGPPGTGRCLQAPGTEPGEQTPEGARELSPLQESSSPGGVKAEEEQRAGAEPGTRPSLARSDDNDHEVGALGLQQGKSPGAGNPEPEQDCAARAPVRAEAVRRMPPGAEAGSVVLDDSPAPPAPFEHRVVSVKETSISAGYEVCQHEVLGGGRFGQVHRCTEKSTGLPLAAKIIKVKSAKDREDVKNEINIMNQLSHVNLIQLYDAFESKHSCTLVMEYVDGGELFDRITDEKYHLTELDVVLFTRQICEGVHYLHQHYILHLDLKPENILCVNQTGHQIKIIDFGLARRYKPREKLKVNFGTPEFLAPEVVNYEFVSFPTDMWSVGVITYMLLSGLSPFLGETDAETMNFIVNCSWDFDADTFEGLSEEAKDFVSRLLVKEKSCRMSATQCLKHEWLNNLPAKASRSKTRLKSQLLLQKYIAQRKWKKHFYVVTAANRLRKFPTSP

## CCCCN1CCN(C(=N)c2cccc(NC(=O)Nc3ccc(S(=O)(=O)NCc4ccc(S(N)(=O)=O)cc4)cc3)c2)CC1 [SC81458, 4-(3-(3-((4-butylpiperazin-1-yl)(imino)methyl)phenyl)ureido)-N-(4-sulfamoylbenzyl) benzenesulfonamide]
[1]
  remaining binding at 10 µM: 92%
[2]
  remaining binding at 10 µM: 100%
[3]
  remaining binding at 10 µM: 90%
[4]
  remaining binding at 10 µM: 100%
[5]
  remaining binding at 10 µM: 100%
[6]
  remaining binding at 10 µM: 100%
[7]
  remaining binding at 10 µM: 62%
[8]
  remaining binding at 10 µM: 96%
[9]
  remaining binding at 10 µM: 99%
[10]
  remaining binding at 10 µM: 100%
[11]
  remaining binding at 10 µM: 92%
[12]
  remaining binding at 10 µM: 81%
[13]
  remaining binding at 10 µM: 100%
[14]
  remaining binding at 10 µM: 100%
[15]
  remaining binding at 10 µM: 95%
[16]
  remaining binding at 10 µM: 88%
[17]
  remaining binding at 10 µM: 97%
[18]
  remaining binding at 10 µM: 100%
[19]
  remaining binding at 10 µM: 64%
[20]
  remaining binding at 10 µM: 99%
[21]
  remaining binding at 10 µM: 83%
[22]
  remaining binding at 10 µM: 70%
[23]
  remaining binding at 10 µM: 100%
[24]
  remaining binding at 10 µM: 100%
[25]
  remaining binding at 10 µM: 75%
[26]
  remaining binding at 10 µM: 89%
[27]
  remaining binding at 10 µM: 96%
[28]
  remaining binding at 10 µM: 74%
[29]
  remaining binding at 10 µM: 100%
[30]
  remaining binding at 10 µM: 100%
[31]
  remaining binding at 10 µM: 87%
[32]
  remaining binding at 10 µM: 88%
[33]
  remaining binding at 10 µM: 100%
